Experiments:
IMR90, HUVEC cells = assay: Fluorescence microscopy of NIR-ASM in NQO1 non-expressing normal cells; format: cell-based, human; conditions: 10 μM, 60 min
Procedure: Detection of NQO1 in live cells. Inspired by the excellent biocompatibility, the inventors investigated its performance in both NQO1 expressing cancer cells (A549, H460) and NQO1 non-expressing normal cells (IMR90, HUVEC). All cells were incubated with NIR-ASM (10 μM) for 60 min, washed with PBS and were imaged under a confocal microscope after counterstaining the nuclei with Hoechst 33342 (FIG. 12A). […] The higher expression of NQO1 protein in A549 and H460 cells and its absence in normal cells, IMR90 and HUVEC as found with western blot analysis correlated with the probe reactivity in cells (FIG. 12B). […] Cell sorting using flow cytometry is a well-established technology in clinical diagnostics and biomedical research. To assess the applicability of the NIR-ASM to rapidly detect and quantify in both cancer and normal cells based on NQO1 expression, the probe was incubated with cell suspensions for 60 min, and about 1×10^4 cells were analyzed on a flow cytometer.
Fluorescence imaging. Both cancer and normal cells were seeded into 6-well plates and cultured overnight in respective media at 37° C. Cells were treated with 10 μM NIR-ASM and incubated at 37° C. for 60 min. They were then treated with nuclear stain Hoechst 33342 for 5 min. Finally, the medium was replaced with PBS and the live cells were imaged using a multiphoton confocal fluorescence microscope (λex/em=488/644 nm). […]

NQO1 = NQO1 (Homo sapiens, UniProt P15559); assay: Kinetics of NQO1 towards NIR-ASM (Michaelis-Menten); format: biochemical; set-up: purchased Sigma-Aldrich D1515; conditions: NQO1 2 μg/mL, NADH 100 μM
Procedure: Next, the kinetics of fluorescent product formation was assessed. […] From this experiment, the initial rate of ASM formation, V (μmol min^−1 μg NQO1^−1), was calculated and then plotted as a function of NIR-ASM concentration (FIG. 10C).
Kinetic studies. Kinetic studies were performed using a microplate reader under philological conditions (PBS with 0.1% of BSA at 37° C.). The assay buffer contained 2 μg/mL of NQO1, 100 μM NADH and different concentrations of NIR-ASM (0-100 μM) in a total volume of 100 μL. Time-dependent fluorescence measurements were carried out to monitor the release of ASM by NQO1 activation of NIR-ASM (λex/em 460/646), and the data were collected every minute for 90 minutes. This assay was repeated two times in triplicate and the fluorescence readings were optimized to a standard curve of ASM of known concentration and calculated the velocity in terms of μmol^−1 min^−1 μg NQO1. A plot of the velocities and NIR-ASM concentration was used to obtaining the apparent kinetic parameters Km and Vmax from nonlinear regression analysis and Michaelis-Menton constant using the GraphPad Prism.

[1] = tested on: Lewis Lung carcinoma (LLC) tumors; assay: In vivo and ex vivo NIRF imaging with NIR-ASM in Lewis Lung carcinoma (LLC) lung cancer model; set-up: species or system C57BL/6 mice
Excerpt: Whether still in-situ or already disseminated, early diagnosis of cancer is an essential requirement for successful therapy. Although NQO1 is expressed at higher levels in cancers compared to a diminished or absent status in normal tissues, the diagnostic potential of existing NQO1 specific fluorescent probes has not been realized. Therefore, the inventors evaluated the non-invasive diagnostic ability of NIR-ASM in a metastatic syngeneic lung cancer model to mimic the clinical situation. Lung cancer was established in C57BL/6 mice by injecting Lewis Lung carcinoma (LLC) cells (0.5×10^6 per animal) intravenously. This cell line is highly tumorigenic and is primarily used to model metastasis as well as evaluate the efficacy of chemotherapeutic agents in vivo.^44 The LLC cells have ˜80 units of NQO1 activity compared to <10 units in healthy mouse lungs.^45 Two weeks after the implantation, the animals received NIR-ASM (5 mg/kg) intravenously. […] There are several routes for drug elimination from the body and the majority of drugs are eliminated by pathways that involve the kidneys.
In vivo bioimaging. The animal study protocol was approved by the Institutional Animal Use and Care Committee (IACUC), Texas Tech University Health Sciences Center, Protocol number: 07050. All experimental protocols used in this study were approved by IACUC, Texas Tech University Health Sciences Center and all the methods were carried out according to the committee guidelines. Female athymic nude mice (nu/nu, 4-6 weeks) were purchased from Charles River Laboratories (Wilmington, MA, USA). BALB/c57 mice were provided by Dr. Constantinos Mikelis of our University. To establish A549 or MDA-MB-231 xenografts, a total of 5×10^6 cells (in 0.1 ml of serum-free media and Matrigel (1:1)) were subcutaneously injected into the flanks of the mice. For developing orthotopic lung cancer models, LLC cells (0.5×10^6) were intravenously injected into the tail veins of female BALB/c57 mice. All animals were monitored for activity, physical condition, body weight, and tumor growth. To detect endogenous NQO1 activity, NIR-ASM was dissolved in a vehicle of composition, PEG-300:EtOH:saline (60:30:10, v/v/v) and given intravenously through tail vein injection. The animals were imaged at different time intervals with excitation/emission filters of 500/640 nm using the IVIS Lumina XR Imaging system. At the end of the experiments, the xenografted tumors, hearts, lungs, livers, kidneys, spleens, and brains were removed and imaged to confirm the signal locations. Fluorescence represented in log values of radiance is photons per second per square centimeter per steradian.

DAOY and T98G cells = assay: Flow cytometry of NQ-DCP activation; format: cell-based, human; conditions: 10 μM, λem=586/40, about 1×10^4 cells
Procedure: Applicability of NQ-DCP for Flow Cytometry. Flow cytometry assays were used to assess the applicability of the NQ-DCP probe to rapidly detect and quantify tumor cells containing hNQO1. The probe was incubated with cell suspensions (DAOY and T98G) for 30 min and a flowcytometry was used to measure the fluorescence (λem=586/40) in about 1×10^4 individual cells.
Cell Culture, Fluorescence Imaging, and Flow Cytometry Analysis. Brain tumor cells and astrocytes were grown in Dulbecco's modified Eagle's (DMEM) medium containing 10% Fetal Bovine Serum and 1% penicillin/streptomycin in a humidified atmosphere of 5% CO2 at 37° C. For fluorescence imaging, initially, cells were seeded into 6-well plate and cultured overnight in respective media at 37° C. Media was replaced with fresh medium containing 10 μM NQ-DCP and incubated at 37° C. for 60 min and then the medium was replaced with PBS and live cells were imaged using a fluorescence microscope. For inhibitor study, cells were pretreated with NQO1 inhibitor ES936 (100 nM) for 6 h before adding the NQ-DCP. For determining endogenous hNQO1 activity in cancer cells using flow cytometry, about 10×10^4 cells were incubated with 10 μM of NQ-DCP for 60 min and were analyzed using flow cytometry.

Chain of NQO1 (P15559 whole entry): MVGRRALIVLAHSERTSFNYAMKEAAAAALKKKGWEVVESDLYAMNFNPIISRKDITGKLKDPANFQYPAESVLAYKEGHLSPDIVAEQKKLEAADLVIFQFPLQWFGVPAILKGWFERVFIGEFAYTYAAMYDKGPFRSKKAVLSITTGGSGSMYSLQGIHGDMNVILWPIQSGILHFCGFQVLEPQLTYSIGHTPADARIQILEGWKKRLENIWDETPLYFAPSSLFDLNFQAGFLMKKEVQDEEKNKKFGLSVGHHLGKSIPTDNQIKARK

maximum velocity (Vmax) (NQO1) [μmol min^−1 mg NQO1^−1]	Compound	fluorescence signal in normal cells (IMR90, HUVEC cells)	time of maximum fluorescence intensity ([1]; 5 mg/kg intravenous) [min]	NIRF signal intensity of tumor-bearing lungs compared to other selected organs ([1]; 5 mg/kg intravenously, two weeks after implantation)	route of elimination ([1]; fluorescence observed in kidneys during ex vivo NIRF imaging)	fluorescence in the lungs of healthy mice ([1]; non-tumor-bearing mouse, intravenous NIR-ASM)	flow cytometry fluorescence signal (DAOY and T98G cells)
0.00419±0.00003	CC1=C(C)C(=O)C(C(C)(C)CC(=O)Nc2ccc(/C=C/C3=CC(=C(C#N)C#N)CC(C)(C)C3)cc2)=C(C)C1=O [NIR-ASM, (E)-N-(4-(2-(3-(dicyanomethylene)-5,5-dimethylcyclohex-1-en-1-yl)vinyl)phenyl)-3-methyl-3-(2,4,5-trimethyl-3,6-dioxocyclohexa-1,4-dien-1-yl)butanamide]	did not show any fluorescence	30	more than 100 fold	renal excretion might play an important role	no fluorescence observed	–
–	CC1=C(C)C(=O)C(C(C)(C)CC(=O)Oc2ccc(/C=C/C3=CC(=C(C#N)C#N)CC(C)(C)C3)cc2)=C(C)C1=O [NQ-DCP]	–	–	–	–	–	high-intensity unimodal distribution of signal
